For 19 compounds, IC50 results are on record in patent US12643887B2, “Heterocyclic derivatives with cardiomyocyte proliferation activity for treatment of heart diseases” (Tongji University, priority 2019, dated 2026).

Read-outs that look alike come from different tables or passages of the source.

In one assay the target is T1, human GSK3 beta (Homo sapiens, UniProt P49841).
T1 construct: Recombinant full-length human GSK3 beta (expressed in Sf9 insect cells with an N-terminal His tag); His (N); purchased SignalChem G09-10H; host or cells: Sf9 insect cells
Description: GSK3 beta enzyme assay (ADP-Glo). In kind it is biochemical. Particulars: ATP 25 μM, read-out: GSK3b IC50. Put shortly: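 Full-length His-tagged human GSK3β from Sf9 cells (4 nM) preincubated 30 min at 25 °C with inhibitor in Tris pH 7.5/MgCl2/BSA/DTT, then reacted 60 min at 25 °C with 13 μM substrate peptide and 25 μM ATP. ADP measured by ADP-Glo luminescence; IC50 from four-parameter logistic fit of % inhibition.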
Background: In ADP-Glo the light output rises with the ADP produced.

The target of another assay is T2, human DYRK1A (Homo sapiens, UniProt Q13627).
T2 construct: Recombinant full-length DYRK1A (expressed in E. Coli cells with an N-terminal GST tag); GST (N); purchased SignalChem D09-10G; host or cells: E. coli
Description: DYRK1A enzyme assay (ADP-Glo). Format: biochemical. The procedure, abridged: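 ADP formed is quantified by luciferase luminescence (ADP-Glo) after a 60-minute, 25 °C reaction with 60 μM ATP and 20 μM DYRKtide peptide. Enzyme: 3 nM recombinant N-terminal GST DYRK1A, given 30 min compound preincubation in Tris pH 7.5/MgCl2/BSA/DTT buffer; % inhibition versus plate controls, four-parameter IC50.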

Where [1] appears, read: ADP-Glo, ATP 60 μM, read-out: DYRK1A IC50.

T1 sequence (P49841 whole entry): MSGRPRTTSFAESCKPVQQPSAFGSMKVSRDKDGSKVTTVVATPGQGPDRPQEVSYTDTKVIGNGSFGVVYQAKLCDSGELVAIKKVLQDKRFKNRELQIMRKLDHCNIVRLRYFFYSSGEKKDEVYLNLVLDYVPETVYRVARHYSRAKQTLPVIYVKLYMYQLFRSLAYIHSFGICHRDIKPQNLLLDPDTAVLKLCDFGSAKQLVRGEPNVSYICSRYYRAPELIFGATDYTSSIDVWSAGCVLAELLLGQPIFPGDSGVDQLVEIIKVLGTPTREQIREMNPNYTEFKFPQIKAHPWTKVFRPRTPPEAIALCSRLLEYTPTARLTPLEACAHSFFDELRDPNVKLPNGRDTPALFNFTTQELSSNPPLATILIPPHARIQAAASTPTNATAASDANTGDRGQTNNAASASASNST

For the compound `CN(C1=N/C(=C\c2ccc3ncccc3c2)C(=O)N1)c1ccc2ncsc2c1` [Example 85, (Z)-2-(benzo[d]thiazol-6-yl(methyl)amino)-5-(quinolin-6-ylmethylene)-3,5-dihydro-4H-imidazol-4-one], the IC50 was 1000 to 10000 nM on human GSK3 beta and 100 to 1000 nM on human DYRK1A (setting [1]).

On to `O=C1NC(Nc2ccc3ncsc3c2)=N/C1=C\c1ccc2nccnc2c1` [Example 94, (Z)-2-(benzo[d]thiazol-6-ylamino)-5-(quinoxalin-6-ylmethylene)-3,5-dihydro-4H-imidazol-4-one], for which the IC50 on human GSK3 beta was greater than 10000 nM.

Take `O=C1NC(=S)N/C1=C\c1ccc2sccc2c1` [Example 96, (Z)-5-(benzo[b]thiophen-5-ylmethylene)-2-thioxoimidazolidin-4-one]: the IC50 at human GSK3 beta is 1000 to 10000 nM; at human DYRK1A (setting [1]), greater than 10000 nM.

Turning to `O=C1NC(N(Cc2ccccc2)c2ccc3ncsc3c2)=N/C1=C\c1ccc2ncsc2c1` [Example 99, (Z)-2-(benzo[d]thiazol-6-yl(benzyl)amino)-5-(benzo[d]thiazol-6-ylmethylene)-3,5-dihydro-4H-imidazol-4-one], the half-maximal inhibitory concentration (IC50) at human GSK3 beta was greater than 10000 nM; on human DYRK1A (setting [1]), 100 to 1000 nM.

For the compound `CCN(C1=N/C(=C\c2ccc3c(c2)OCO3)C(=O)N1)c1ccccc1` [Example 4, (Z)-5-(benzo[d][1,3]dioxol-5-ylmethylene)-2-(ethyl(phenyl)amino)-3,5-dihydro-4H-imidazol-4-one], the IC50 on human DYRK1A (setting [1]) lay in the range of 100 to 1000 nM.

For the compound `Nc1ccc(NC2=N/C(=C\c3ccc4ncsc4c3)C(=O)N2)cc1` [Example 98, (Z)-2-((4-aminophenyl)amino)-5-(benzo[d]thiazol-6-ylmethylene)-3,5-dihydro-4H-imidazol-4-one], on human GSK3 beta, the IC50 is 100 to 1000 nM.

In the case of `Cn1cnc2ccc(NC3=N/C(=C\c4ccc5ncsc5c4)C(=O)N3)cc21` [Example 93, (Z)-5-(benzo[d]thiazol-6-ylmethylene)-2-((1-methyl-1H-benzo[d]imidazol-6-yl)amino)-3,5-dihydro-4H-imidazol-4-one], the IC50 at human GSK3 beta is 100 to 1000 nM; at human DYRK1A (setting [1]), less than 100 nM.

On to `O=C1NC(Nc2ccc3nc[nH]c3c2)=N/C1=C\c1ccc2ncsc2c1` [Example 97, (Z)-2-((1H-benzo[d]imidazol-6-yl)amino)-5-(benzo[d]thiazol-6-ylmethylene)-3,5-dihydro-4H-imidazol-4-one], for which the IC50 on human GSK3 beta lay within 1000 to 10000 nM.

Take `CC(=O)N(C1=N/C(=C\c2ccc3ncsc3c2)C(=O)N1)c1ccc2ncsc2c1` [Example 91, (Z)—N-(benzo[d]thiazol-6-yl)-N-(4-(benzo[d]thiazol-6-ylmethylene)-5-oxo-4,5-dihydro-1H-imidazol-2-yl)acetamide]: the IC50 on human GSK3 beta is greater than 10000 nM; on human DYRK1A (setting [1]), less than 100 nM.

`CC(C)Nc1nc2ccc(NC3=N/C(=C\c4ccc5ncsc5c4)C(=O)N3)cc2s1` [Example 100, (Z)-5-(benzo[d]thiazol-6-ylmethylene)-2-((2-(isopropylamino)benzo[d]thiazol-6-yl)amino)-3,5-dihydro-4H-imidazol-4-one]: the IC50 on human GSK3 beta and on human DYRK1A (setting [1]) was 100 to 1000 nM in each case.

In the case of `CN1C(=O)/C(=C/c2ccc3ncsc3c2)N=C1Nc1ccc2ncsc2c1` [Example 88, (Z)-2-(benzo[d]thiazol-6-ylamino)-5-(benzo[d]thiazol-6-ylmethylene)-3-methyl-3,5-dihydro-4H-imidazol-4-one], the IC50 at human GSK3 beta was greater than 10000 nM; on human DYRK1A (setting [1]) it was less than 100 nM.

`O=C1NC(Nc2ccc3ncsc3c2)=N/C1=C\c1cncs1` [Example 92, (Z)-2-(benzo[d]thiazol-6-ylamino)-5-(thiazol-5-ylmethylene)-3,5-dihydro-4H-imidazol-4-one]: the IC50 on human GSK3 beta and on human DYRK1A (setting [1]) was 100 to 1000 nM each time.

For `COCCN(C1=N/C(=C\c2ccc3ncsc3c2)C(=O)N1)c1ccc2ncsc2c1` [Example 89, (Z)-2-(benzo[d]thiazol-6-yl(2-methoxyethyl)amino)-5-(benzo[d]thiazol-6-ylmethylene)-3,5-dihydro-4H-imidazol-4-one], the IC50 at human GSK3 beta fell in the range of 1000 to 10000 nM; at human DYRK1A (setting [1]), 100 to 1000 nM.

With `Cc1nc2ccc(NC3=N/C(=C\c4ccc5ncsc5c4)C(=O)N3)cc2s1` [Example 90, (Z)-5-(benzo[d]thiazol-6-ylmethylene)-2-((2-methylbenzo[d]thiazol-6-yl)amino)-3,5-dihydro-4H-imidazol-4-one], the IC50 was greater than 10000 nM at human GSK3 beta and less than 100 nM on human DYRK1A (setting [1]).

For the compound `CN(C1=N/C(=C\c2ccc3[nH]ccc3c2)C(=O)N1)c1ccc2ncsc2c1` [Example 87, (Z)-5-((1H-indol-5-yl)methylene)-2-(benzo[d]thiazol-6-yl(methyl)amino)-3,5-dihydro-4H-imidazol-4-one], the IC50 at human GSK3 beta and at human DYRK1A (setting [1]) was greater than 10000 nM in each case.

In turn, `CC(=O)N(C1=N/C(=C\c2ccc3c(c2)OCO3)C(=O)N1)c1ccccc1` [Example 5, (Z)—N-(4-(benzo[d][1,3]dioxol-5-ylmethylene)-5-oxo-4,5-dihydro-1H-imidazol-2-yl)-N-phenylacetamide] registered an IC50 against human DYRK1A of less than 100 nM.

On to `O=C1NC(Nc2ccc3ncsc3c2)=N/C1=C\c1ccc2cn[nH]c2c1` [Example 95, (Z)-5-((1H-indazol-6-yl)methylene)-2-(benzo[d]thiazol-6-ylamino)-3,5-dihydro-4H-imidazol-4-one], for which the IC50 on human GSK3 beta and on human DYRK1A (setting [1]) was greater than 10000 nM throughout.

With `O=C1NC(Nc2ccc3sccc3c2)=N/C1=C\c1ccc2ncsc2c1` [Example 101, (Z)-2-(benzo[b]thiophen-5-ylamino)-5-(benzo[d]thiazol-6-ylmethylene)-3,5-dihydro-4H-imidazol-4-one], on human GSK3 beta, the IC50 was greater than 10000 nM.

For the compound `CN(C1=N/C(=C\c2ccc3ncsc3c2)C(=O)N1)c1ccc2c(c1)ncn2C` [Example 86, (Z)-5-(benzo[d]thiazol-6-ylmethylene)-2-(methyl(1-methyl-1H-benzo[d]imidazol-5-yl)amino)-3,5-dihydro-4H-imidazol-4-one], the IC50 on human GSK3 beta and on human DYRK1A (setting [1]) was 1000 to 10000 nM in each case.

As usually defined, the IC50 is the point on the concentration scale where inhibition reaches its midpoint.
